Measurements from patent US4766110A, “Novel complex amido and imido derivatives of carboxyalkyl peptides” (priority 1986, dated 1988).
“Also recorded” adds a separate entry of the source.

Experiments:
[1] = Loss of activity of aqueous SQ14225 solution on standing; assay type: physicochemical; conditions: 1 mg per ml, pH of about 8, ambient conditions
[2] = cited from earlier work
[3] = system: mean arterial blood pressure response to angiotensin I; experiment: Intravenous effectiveness: blood pressure response to angiotensin I in anesthetized rats; assay type: in vivo; conditions: for Blood Pressure Response to 400 ng/kg of Angiotensin I: rat, 0.5 μmole/kg IV
Description: Rats (190-290 g body weight) were fasted overnight and then anesthetized with intraperitoneal pentobarbital, 50-60 mg/kg. Tracheostomy was performed and the animals were ventilated mechanically. A cannula was inserted into a femoral vein for injection of angiotensin I, and a second cannula was inserted into a common carotid artery for direct measurement of arterial blood pressure. Heparin, 1,000 units, was injected via the femoral vein to prevent coagulation. Blood pressure was measured with a pressure transducer connected to a polygraph. The rats were injected with […] of angiotensin I in 20 μl of 0.9 g % NaCl, an amount of angiotensin I sufficient to raise mean arterial blood pressure by approximately 48 mm Hg.
After the responsiveness of a given rat to angiotensin I was established, the named compound at 0.5 μmole/kg (drug dissolved in 15 microliters of 0.9% NaCl) was given intravenously. At time intervals, the effects of 400 ng/kg of angiotensin I on mean arterial blood pressure were tested. Results are shown below:
Experiments were carried out using rats according to Example 30.

[4] = biological target: T1, human plasma angiotensin converting enzyme (Homo sapiens, UniProt P12821); experiment: In vitro assay of inhibition of angiotensin converting enzyme; assay type: biochemical; conditions: [3H]benzoyl-Gly-His-Leu 80 nM, pH 8.0, 37° C., 15 minutes, I50 approximates Ki
T1 construct: partially-purified human plasma angiotensin converting enzyme; from tissue; host or cells: human plasma
T1 sequence (P12821 30-1232 limits assumed): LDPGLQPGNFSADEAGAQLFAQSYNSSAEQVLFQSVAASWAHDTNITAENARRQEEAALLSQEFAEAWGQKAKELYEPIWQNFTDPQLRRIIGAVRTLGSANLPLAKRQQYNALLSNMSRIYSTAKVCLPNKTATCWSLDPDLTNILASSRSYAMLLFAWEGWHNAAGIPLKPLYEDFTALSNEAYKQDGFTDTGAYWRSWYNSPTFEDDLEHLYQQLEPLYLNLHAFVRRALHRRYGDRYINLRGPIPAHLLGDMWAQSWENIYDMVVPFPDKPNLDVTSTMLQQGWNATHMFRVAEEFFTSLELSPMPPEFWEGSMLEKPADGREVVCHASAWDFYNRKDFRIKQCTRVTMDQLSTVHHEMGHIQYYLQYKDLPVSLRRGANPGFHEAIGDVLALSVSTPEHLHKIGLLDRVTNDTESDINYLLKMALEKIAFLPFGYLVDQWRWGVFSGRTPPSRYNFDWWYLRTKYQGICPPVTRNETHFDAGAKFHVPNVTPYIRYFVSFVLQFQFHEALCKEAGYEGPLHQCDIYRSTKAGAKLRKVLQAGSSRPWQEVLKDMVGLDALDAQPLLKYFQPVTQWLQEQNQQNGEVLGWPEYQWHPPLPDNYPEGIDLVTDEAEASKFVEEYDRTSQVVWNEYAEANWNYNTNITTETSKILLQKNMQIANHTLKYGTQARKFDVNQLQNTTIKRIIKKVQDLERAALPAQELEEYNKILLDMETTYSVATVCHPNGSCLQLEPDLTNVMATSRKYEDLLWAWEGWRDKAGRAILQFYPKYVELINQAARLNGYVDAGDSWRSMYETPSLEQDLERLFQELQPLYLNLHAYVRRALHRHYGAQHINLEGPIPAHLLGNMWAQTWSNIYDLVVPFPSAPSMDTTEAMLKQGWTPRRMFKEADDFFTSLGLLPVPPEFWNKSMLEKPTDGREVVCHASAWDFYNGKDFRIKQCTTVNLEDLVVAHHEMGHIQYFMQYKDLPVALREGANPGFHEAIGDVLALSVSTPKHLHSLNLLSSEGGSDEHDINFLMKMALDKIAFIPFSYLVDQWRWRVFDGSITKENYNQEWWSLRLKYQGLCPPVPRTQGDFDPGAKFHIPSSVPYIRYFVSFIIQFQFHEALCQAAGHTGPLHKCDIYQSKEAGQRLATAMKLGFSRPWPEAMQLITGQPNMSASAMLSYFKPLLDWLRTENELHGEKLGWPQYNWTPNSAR
Description: Compounds of this invention were assayed through the following protocol: 25 microliters of buffer (0.05M Hepes buffer, pH 8.0, plus 0.1M NaCl and 0.75M Na2 SO4) or 25 microliters of an inhibitor in buffer was added to the bottom of a 7 ml liquid scintillation vial. To this was added 100 microliters of buffered substrate [S], [^3 H]benzoyl-Gly-His-Leu, 80 nM (25 Ci/mmole). The reaction was started by adding 100 microliters of partially-purified human plasma angiotensin converting enzyme, or 100 microliters of buffer alone. The concentration of enzyme [E] used was that required to hydrolyze 8-12% of substrate when incubated at 37° C. for 15 minutes. The scintillation vials and their contents were incubated at 37° C. for 15 minutes, and the reactions were stopped by adding 200 microliters of 0.5M HCl to each vial. The radioactive reaction product, [^3 H]benzoyl-Gly(hippuric acid), was separated from unhydrolyzed substrate by adding and mixing (by inversion) 3 ml of Ventrex Cocktail No. 1 (Ventrex Laboratories, Inc., Portland, Maine), a fluid disclosed in copending U.S. patent application Ser. No. 184,653, filed Sept. 6, 1980. Extractable ^3 H was quantified by liquid scintillation counting. Substrate, in c.p.m., was quantified by scintillation counting of a vial containing 100 μl of buffered substrate in 5 ml of RIAfluor (New England Nuclear). The reaction mixture containing al constituents except for inhibitor was termed the control (C). The reaction mixture lacking enzyme and inhibitor was called the blank (B). Reaction mixtures containing inhibitor (varied over the range of 10^-4 -10^-12 M) were called the test (T) reactions. Under the conditions of this assay, the reaction obeys first order enzyme kinetics, thus the concentration of inhibitor required to inhibit the rate of hydrolysis by half (I50) approximates the Ki value. The results were estimated by use of the formula: [formula] where C=control c.p.m.; B=blank c.p.m.; [S]=substrate c.p.m. The factor 100 converts fractional substrate utilization into percentage utilization,and 1/15 minute corrects to percentage substrate utilization/minute. Thus, [E] is enzyme activity in percentage substrate utilization/minute. By substituting T for C, hydrolysis rates are computed for the test reaction mixtures. By comparing a given test rate against the control rate, the degree of inhibition can be computed.

In the case of `C[C@H](CS)C(=O)N1CCC[C@H]1C(=O)O` [SQ14225, D-3-mercapto-2-methylpropanoyl-L-proline], the “activity of fresh aqueous solution on standing” value [1] is listed as “becomes substantially less active upon standing for as little as 30 minutes”, the renal biopsy findings ([2]; 13 patients treated with SQ14225, Hoorntje et al.) is listed as “evidence of immune complex deposition along the glomerular basement membranes” and the “adverse effects in man” value ([2]; patients, Gavras et al.) is listed as “occasional allergic reactions; also recorded: fevers and rashes”.
For `CC(N[C@@H](CCC(=O)Nc1ccc(I)cc1)C(=O)O)C(=O)N1CCC[C@H]1C(=O)O` (stereo partly drawn) [Example 27, N-[L-1-carboxy-3-(carbo-4-iodo-anilide)propyl]-Alanyl-L-Proline], the “increase in intravenous effectiveness on removal of iodine” value ([3]; de-iodo compound versus the 4-iodoanilide) was “three-fold”, the “Blood Pressure Response to 400 ng/kg of Angiotensin I” value (shortened to “Blood Pressure Response to 400 ng/kg”) ([3]; 5 min after administration) was 42 % of Control and the “Blood Pressure Response to 400 ng/kg” value ([3]; 10 min after administration) was 46 % of Control. For the same compound, the “Blood Pressure Response to 400 ng/kg” value ([3]; 15 min after administration) was 52 % of Control, the “Blood Pressure Response to 400 ng/kg” value ([3]; 20 min after administration) was 60 % of Control and the “Blood Pressure Response to 400 ng/kg” value ([3]; 25 min after administration) was 67 % of Control. For the same compound, the “Blood Pressure Response to 400 ng/kg” value ([3]; 30 min after administration) was 71 % of Control, the “Blood Pressure Response to 400 ng/kg” value ([3]; 35 min after administration) was 71 % of Control and the “Blood Pressure Response to 400 ng/kg” value ([3]; 50 min after administration) was 83 % of Control. The “Blood Pressure Response to 400 ng/kg” value ([3]; 60 min after administration) was 92 % of Control, the “Blood Pressure Response to 400 ng/kg” value ([3]; 70 min after administration) was 100 % of Control and the “Blood Pressure Response to 400 ng/kg” value ([3]; 80 min after administration) was 104 % of Control. The “Blood Pressure Response to 400 ng/kg” value ([3]; +1 min after administration) was 33 % of Control, the IC50 [4] was 0.23 nM and the IC50 ([4]; listed as N-[L-1-carboxy-3-(carbo-4-iodoanilide)propyl]-D,L-Ala-L-Pro) was about 1 nM.
For `CC(N[C@@H](CCC(=O)Nc1ccccc1)C(=O)O)C(=O)N1CCC[C@H]1C(=O)O` (stereo partly drawn) [Example 26, N-[L-1-carboxy-3-(carbo-anilide)propyl]-Alanyl-L-Proline], the “Blood Pressure Response to 400 ng/kg” value ([3]; 5 min after administration) was 37 % of Control, the “Blood Pressure Response to 400 ng/kg” value ([3]; 10 min after administration) was 37 % of Control and the “Blood Pressure Response to 400 ng/kg” value ([3]; 15 min after administration) was 40 % of Control. The “Blood Pressure Response to 400 ng/kg” value ([3]; 20 min after administration) was 40 % of Control, the “Blood Pressure Response to 400 ng/kg” value ([3]; 25 min after administration) was 40 % of Control and the “Blood Pressure Response to 400 ng/kg” value ([3]; 30 min after administration) was 35 % of Control. The “Blood Pressure Response to 400 ng/kg” value ([3]; 40 min after administration) was 35 % of Control, the “Blood Pressure Response to 400 ng/kg” value ([3]; 50 min after administration) was 46 % of Control and the “Blood Pressure Response to 400 ng/kg” value ([3]; 60 min after administration) was 46 % of Control. The “Blood Pressure Response to 400 ng/kg” value ([3]; 70 min after administration) was 48 % of Control, the “Blood Pressure Response to 400 ng/kg” value ([3]; 80 min after administration) was 52 % of Control and the “Blood Pressure Response to 400 ng/kg” value ([3]; 90 min after administration) was 54 % of Control. For the same compound, the “Blood Pressure Response to 400 ng/kg” value ([3]; 102 min after administration) was 62.5 % of Control, the “Blood Pressure Response to 400 ng/kg” value ([3]; +1 min after administration) was 42 % of Control and the IC50 [4] was 5.2 nM. For the same compound, the IC50 ([4]; listed as N-[L-1-carboxy-3-(carboanilide)propyl]-D,L-Ala-L-Pro) was about 1 nM.
`CC(N[C@@H](CC(=O)N1CCCC1)C(=O)O)C(=O)N1CCC[C@H]1C(=O)O` (stereo partly drawn) [Example 28, N-[L-1-carboxy-2-(carbopyrrolide)ethyl]-Alanyl-L-Proline] showed an IC50 [4] of 140 nM and an IC50 ([4]; listed as N-[L-1-carboxy-2-(carbopyrrolide)ethyl]-D,L-Ala-Pro) of about 100 nM.
